Data reported in patent US20220041616A1, “SPIRO COMPOUND AND MEDICAL USES THEREOF” (The National Institutes of Pharmaceutical R&D Co., Ltd., priority 2018, published 2022).

What was measured:
ACC1 = molecular target: T1, ACC1 (Homo sapiens, UniProt Q13085); test: In vitro inhibition of ACC1 activity, ADP-Glo Kinase Analysis; assay type: biochemical; conditions: 1 nM ACC1, 10 μM acetyl-CoA, 20 μM ATP
T1 construct: purchased BPS bioscience
In short: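 Enzyme was preincubated with compound for 15 min, then reacted for 30 min at room temperature in 5% DMSO, with ADP measured by ADP-Glo luminescence. ACC1: 1 nM, with 10 μM acetyl-CoA, 30 mM NaHCO3 and 20 μM ATP. ACC2: 1.1 nM, with 20 μM acetyl-CoA, 20 mM NaHCO3 and 15 μM ATP.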

HepG2 cells = test: In vitro inhibition of proliferation of HepG2 cells, CellTiter-Glo; assay type: cell-based, human; conditions: 3 days incubation, top concentration 30 μM
Source text: CellTiter-Glo Analysis Kit (Promega) was used for the detection of the inhibitory effect of the present compound on the proliferation of HepG2 cells. The CellTiter-Glo detection method uses luciferase, which requires ATP for its reaction and luminescence. The intensity of the luminescent signal depends on the amount of ATP, and the amount of ATP depends on the number of living cells. Said analysis only requires that ATP in living cells is converted to luminescence by UltraGlo™ luciferase after treatment with the tested drug, so that the inhibitory effect of the compound is detected based on the luminescence intensity, and its IC50 value is calculated.
a. HepG2 cells were purchased from the American type culture collection (ATCC) resource bank. Cells were cultured in MEM (GIBCO) containing 10% fetal bovine serum, penicillin (100 units/mL) and streptomycin (100 μg/mL), and then incubated in a 37° C. incubator containing 5% carbon dioxide, and passaged once every 2 to 3 days.
b. On the first day, 800 HepG2 cells were inoculated in each well of a 384-well cell culture plate, and then incubated in a 37° C. incubator containing 5% carbon dioxide.
c. On the second day, the medium was changed to that containing the compound. The concentrations of the compound were 30 μM, 10 μM, 3.33 μM, 1.11 μM, 0.37 μM, 0.123 μM, 0.0411 μM, 0.0137 μM, 0.00457 μM and 0.00152 μM. The final concentration of DMSO was 0.3% (v/v). The plate was incubated for 3 days in a incubator containing 5% carbon dioxide at 37° C. The reaction system with paclitaxel at a final concentration of 1 μM was used as positive control; the reaction system with no compound but DMSO at a final concentration of 0.3% was used as negative control.
d. […]
f. The chemiluminescence signal value was read with Envision 2104 instrument.
The average value of the positive and negative control well and the standard deviation were calculated. The percentage inhibition rate was calculated according to the following formula: 100×[1−(compound−average value of positive control)/(average value of negative control−average value of positive control)]. […]

ACC2 = ACC2 (Homo sapiens, UniProt O00763); test: In vitro inhibition of ACC2 activity, ADP-Glo Kinase Analysis; assay type: biochemical; conditions: 1.1 nM ACC2, 20 μM acetyl-CoA, 15 μM ATP
ACC2, sequence (O00763 whole entry): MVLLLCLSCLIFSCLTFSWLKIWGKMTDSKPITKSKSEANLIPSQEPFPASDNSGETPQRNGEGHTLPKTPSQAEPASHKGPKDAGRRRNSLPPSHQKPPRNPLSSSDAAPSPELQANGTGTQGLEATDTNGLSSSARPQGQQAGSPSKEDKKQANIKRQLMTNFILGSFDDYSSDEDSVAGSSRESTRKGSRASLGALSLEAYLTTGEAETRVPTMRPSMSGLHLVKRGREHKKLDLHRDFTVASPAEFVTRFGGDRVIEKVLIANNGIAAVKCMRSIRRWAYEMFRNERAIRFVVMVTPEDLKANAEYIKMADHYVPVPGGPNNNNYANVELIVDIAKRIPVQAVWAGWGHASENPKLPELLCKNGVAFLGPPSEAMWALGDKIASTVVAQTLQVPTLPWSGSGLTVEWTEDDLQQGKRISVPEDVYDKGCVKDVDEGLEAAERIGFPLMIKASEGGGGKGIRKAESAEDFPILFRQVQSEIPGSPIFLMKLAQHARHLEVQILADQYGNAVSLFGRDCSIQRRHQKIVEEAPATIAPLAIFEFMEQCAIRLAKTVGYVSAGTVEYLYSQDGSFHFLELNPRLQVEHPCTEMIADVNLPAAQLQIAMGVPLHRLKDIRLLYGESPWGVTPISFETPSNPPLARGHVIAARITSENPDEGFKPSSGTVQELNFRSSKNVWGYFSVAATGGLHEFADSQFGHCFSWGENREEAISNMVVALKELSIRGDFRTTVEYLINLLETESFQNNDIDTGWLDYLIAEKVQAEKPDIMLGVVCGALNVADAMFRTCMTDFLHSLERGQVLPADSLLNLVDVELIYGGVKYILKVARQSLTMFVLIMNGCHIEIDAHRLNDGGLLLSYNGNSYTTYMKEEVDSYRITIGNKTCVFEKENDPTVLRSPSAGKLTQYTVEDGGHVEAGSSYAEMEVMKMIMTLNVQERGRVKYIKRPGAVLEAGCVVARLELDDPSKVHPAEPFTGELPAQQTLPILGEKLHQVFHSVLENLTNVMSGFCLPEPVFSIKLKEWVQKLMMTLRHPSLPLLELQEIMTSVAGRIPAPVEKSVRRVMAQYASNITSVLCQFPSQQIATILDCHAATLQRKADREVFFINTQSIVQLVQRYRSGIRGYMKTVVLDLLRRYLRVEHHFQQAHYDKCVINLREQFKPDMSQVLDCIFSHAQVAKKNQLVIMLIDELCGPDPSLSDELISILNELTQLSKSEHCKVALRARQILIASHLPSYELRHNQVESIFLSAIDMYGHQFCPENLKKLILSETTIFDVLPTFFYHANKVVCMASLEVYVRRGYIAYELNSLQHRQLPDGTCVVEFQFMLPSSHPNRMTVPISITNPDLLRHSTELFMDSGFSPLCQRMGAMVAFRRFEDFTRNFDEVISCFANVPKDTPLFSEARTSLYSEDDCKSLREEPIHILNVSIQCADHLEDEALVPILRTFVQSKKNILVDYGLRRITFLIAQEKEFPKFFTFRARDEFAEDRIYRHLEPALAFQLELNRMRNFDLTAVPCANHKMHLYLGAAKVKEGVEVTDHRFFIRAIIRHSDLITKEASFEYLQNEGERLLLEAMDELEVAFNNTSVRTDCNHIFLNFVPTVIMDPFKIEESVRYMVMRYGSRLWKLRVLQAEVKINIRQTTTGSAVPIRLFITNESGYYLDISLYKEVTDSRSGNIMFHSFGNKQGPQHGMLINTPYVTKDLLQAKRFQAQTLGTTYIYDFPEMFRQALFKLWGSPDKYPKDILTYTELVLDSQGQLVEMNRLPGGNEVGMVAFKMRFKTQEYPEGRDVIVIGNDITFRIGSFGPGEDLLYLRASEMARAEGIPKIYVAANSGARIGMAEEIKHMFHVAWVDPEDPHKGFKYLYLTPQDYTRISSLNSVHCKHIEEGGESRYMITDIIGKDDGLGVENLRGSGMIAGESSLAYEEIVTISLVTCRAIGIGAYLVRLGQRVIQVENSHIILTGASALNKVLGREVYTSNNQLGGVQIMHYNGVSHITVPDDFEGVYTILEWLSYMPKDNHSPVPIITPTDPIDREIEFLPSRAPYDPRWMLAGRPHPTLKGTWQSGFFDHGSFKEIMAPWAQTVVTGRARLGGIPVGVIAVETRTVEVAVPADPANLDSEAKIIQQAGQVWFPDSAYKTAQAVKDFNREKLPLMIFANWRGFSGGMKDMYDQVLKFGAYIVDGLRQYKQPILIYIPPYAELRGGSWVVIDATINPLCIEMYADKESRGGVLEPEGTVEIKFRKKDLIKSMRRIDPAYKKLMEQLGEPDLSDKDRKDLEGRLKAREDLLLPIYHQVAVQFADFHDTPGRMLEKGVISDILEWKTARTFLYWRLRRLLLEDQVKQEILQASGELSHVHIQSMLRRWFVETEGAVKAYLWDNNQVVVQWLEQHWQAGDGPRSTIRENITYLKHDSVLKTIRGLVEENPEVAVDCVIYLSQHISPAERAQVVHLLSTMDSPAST
Source text: ADP-Glo™ Kinase Analysis Kit (Promega) is used for the in vitro analysis of the inhibitory effect of the present compound on ACC1 or ACC2. ADP-Glo™ Kinase Analysis is a kinase detection analysis of luminescence method. ADP is produced in the process of catalyzing the substrate by ACC. ADP is converted into ATP which is then converted into light by Ultra-Glo™ luciferase. ADP is quantified by detecting the light signal, thus the enzyme activity can be measured by quantification of the ADP amount produced during the enzyme reaction. The analysis is carried out in two steps: in the first step, after the kinase reaction, a portion of ADP-Glo™ reagent equal in volume to the kinase reaction system is added to terminate the reaction and consume the remaining ATP; in the second step, a kinase detection reagent is added, which not only converts ADP into ATP, but also uses a coupled luciferase/luciferin reaction to detect newly synthesized ATP.
a. 10 mM compound stock solution (the present compound was dissolved in 100% DMSO to prepare the 10 mM stock solution) was diluted 50-fold to 200 μM with 100% DMSO, and then diluted in equal proportions (1:3) in a 96-well dilution plate (249944, Nunc). The gradient concentrations of the compound were 200 μM, 66.67 μM, 22.22 μM, 7.41 μM, 2.47 μM, 0.823 μM, 0.274 μM, 0.0914 μM, 0.0305 μM, 0.0102 μM, 0.00339 μM and 0.00113 μM.
b. 4.5 μL ACC1 working solution (BPS bioscience) (2.22 nM) was added to each well of a 384-well test plate (6007290, Perkin Elmer).
c. 0.5 μL of the serially diluted compound (prepared in step a) was added to each well of the 384-well test plate, which was centrifuged at 1000 rpm for 1 min and then incubated at room temperature for 15 min. […]
g. The chemiluminescence signal was detected with Perkin Elmer EnVision 2104. […]
The average value of the positive and negative control well and the standard deviation were calculated. The inhibition percentage was calculated according to the following formula: 100×[1−(compound−average value of positive control)/(average value of negative control-average value of positive control)]. […]

SMILES: COc1ccccc1C(CN1C(=O)C2(CCC(C(=O)O)C2)C(=O)c2c1sc(-c1ncco1)c2C)OC1CCOCC1 (mixture of isomers) [Compound 5x, 7′-(2-(2-methoxyphenyl)-2-((tetrahydro-2H-pyran-4-yl)oxy)ethyl)-3′-methyl-2′-(oxazol-2-yl)-4′,6′-dioxo-6′,7′-dihydro-4′H-spiro[cyclopentane-1,5′-thieno[2,3-b]pyridine]-3-carboxylic Acid]
- IC50 (ACC1): < 10 nM
- IC50 (HepG2 cells; Homo sapiens, HepG2, 72 h): > 30 µM

SMILES: COc1ccccc1C(CN1C(=O)C2(CCC(C(=O)O)C2)C(=O)c2c1sc(-c1ncco1)c2C)OC1CCOCC1 (mixture of isomers) [Compound 5y, 7′-(2-(2-methoxyphenyl)-2-((tetrahydro-2H-pyran-4-yl)oxy)ethyl)-3′-methyl-2′-(oxazol-2-yl)-4′,6′-dioxo-6′,7′-dihydro-4′H-spiro[cyclopentane-1,5′-thieno[2,3-b]pyridine]-3-carboxylic Acid]
- IC50 (ACC1): < 10 nM
- IC50 (HepG2 cells): > 30 µM

SMILES: COc1ccccc1C(CN1C(=O)C2(CC(C(=O)O)C2)C(=O)c2c1sc(-c1ncco1)c2C)OC1CCOCC1 (mixture of isomers) [Compound 8, 7′-(2-(2-methoxyphenyl)-2-((tetrahydro-2H-pyran-4-yl)oxy)ethyl)-3′-methyl-2′-(oxazol-2-yl)-4′,6′-dioxo-6′,7′-dihydro-4′H-spiro[cyclobutane-1,5′-thieno[2,3-b]pyridine]-3-carboxylic Acid]
- IC50 (ACC1): < 10 nM
- IC50 (HepG2 cells; Homo sapiens, HepG2, 72 h): > 30 µM

SMILES: COc1ccccc1C(CN1C(=O)C2(CCC(C(=O)O)C2)C(=O)c2c1sc(-c1ncco1)c2C)OC1CCOCC1 (single isomer, unassigned) [Compound 5b, 7′-(2-(2-methoxyphenyl)-2-((tetrahydro-2H-pyran-4-yl)oxy)ethyl)-3′-methyl-2′-(oxazol-2-yl)-4′,6′-dioxo-6′,7′-dihydro-4′H-spiro[cyclopentane-1,5′-thieno[2,3-b]pyridine]-3-carboxylic Acid]
- IC50 (ACC1): < 10 nM
- IC50 (ACC2): < 10 nM

SMILES: COc1ccccc1C(CN1C(=O)C2(CC(C(=O)O)C2)C(=O)c2c1sc(-c1ncco1)c2C)OC1CCOCC1 (single isomer, unassigned) [Compound 8d, 7′-(2-(2-methoxyphenyl)-2-((tetrahydro-2H-pyran-4-yl)oxy)ethyl)-3′-methyl-2′-(oxazol-2-yl)-4′,6′-dioxo-6′,7′-dihydro-4′H-spiro[cyclobutane-1,5′-thieno[2,3-b]pyridine]-3-carboxylic Acid]
- IC50 (ACC1): < 10 nM
- IC50 (ACC2): < 10 nM

SMILES: COc1ccccc1[C@H](CN1c2sc(-c3ncco3)c(C)c2C(=O)[C@]2(C[C@H](C(=O)O)C2)C1=O)OC1CCOCC1 [Compound 8c, 7′-(2-(2-methoxyphenyl)-2-((tetrahydro-2H-pyran-4-yl)oxy)ethyl)-3′-methyl-2′-(oxazol-2-yl)-4′,6′-dioxo-6′,7′-dihydro-4′H-spiro[cyclobutane-1,5′-thieno[2,3-b]pyridine]-3-carboxylic Acid]
- IC50 (ACC1): < 10 nM
- IC50 (ACC2): < 10 nM
